Where a name gives a salt, the structure may show the parent alone.
Target: T1, human EP1 receptor (Homo sapiens, UniProt P34995)
T1 construct: expressed in transfected cells; host or cells: CHO-K1
T1 sequence (P34995 1-402): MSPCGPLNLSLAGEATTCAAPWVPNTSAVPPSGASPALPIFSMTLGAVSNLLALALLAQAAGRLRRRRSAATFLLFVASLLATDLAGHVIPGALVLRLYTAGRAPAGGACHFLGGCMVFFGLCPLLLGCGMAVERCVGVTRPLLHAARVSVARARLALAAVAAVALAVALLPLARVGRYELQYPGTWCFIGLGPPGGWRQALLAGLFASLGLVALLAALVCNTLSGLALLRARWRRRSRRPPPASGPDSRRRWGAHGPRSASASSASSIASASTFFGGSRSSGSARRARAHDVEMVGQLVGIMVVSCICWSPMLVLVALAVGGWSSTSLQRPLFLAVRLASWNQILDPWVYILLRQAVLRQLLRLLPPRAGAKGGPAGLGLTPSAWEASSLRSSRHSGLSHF
Assay: human EP1 calcium mobilisation assay
Assay type: cell-based
Conditions: human EP1, PGE2-induced calcium mobilisation in CHO-K1 cells; free bases or sodium salts; averages of a number of experiments; read-out: functional pKi value (converted)
Description: Briefly, the antagonist properties of compounds are assessed by their ability to inhibit the mobilisation of intracellular calcium ([Ca^2+]i) in response to activation of EP1 or EP3 receptors by the natural agonist hormone prostaglandin E2 (PGE2). Increasing concentrations of antagonist reduce the amount of calcium that a given concentration of PGE2 can mobilise. The net effect is to displace the PGE2 concentration-effect curve to higher concentrations of PGE2. The amount of calcium produced is assessed using a calcium-sensitive fluorescent dye such as Fluo-4, AM and a suitable instrument such as a Fluorimetric Imaging Plate Reader (FLIPR). Increasing amounts of [Ca^2+]i produced by receptor activation increase the amount of fluorescence produced by the dye and give rise to an increasing signal. The signal may be detected using the FLIPR instrument and the data generated may be analysed with suitable curve-fitting software.
The human EP1 or EP3 calcium mobilisation assay (hereafter referred to as ‘the calcium assay’) utilises Chinese hamster ovary-K1(CHO-K1) cells into which a stable (pCIN; BioTechniques 20 (1996): 102-110) vector containing either EP1 or EP3 cDNA has previously been transfected. Cells are cultured in suitable flasks containing culture medium such as DMEM:F-12 supplemented with 10% v/v foetal calf serum, 2 mM L-glutamine, 0.25 mg/ml geneticin, 100 μM flurbiprofen and 10 μg/ml puromycin.
For assay, cells are harvested using a proprietary reagent that dislodges cells such as Versene. Cells are re-suspended in a suitable quantity of fresh culture media for introduction into a 384-well plate. Following incubation for 24 hours at 37° C. the culture media is replaced with a medium containing Fluo-4 and the detergent pluronic acid, and a further incubation takes place. Concentrations of compounds are then added to the plate in order to construct concentration-effect curves. This may be performed on the FLIPR in order to assess the agonist properties of the compounds. Concentrations of PGE2 are then added to the plate in order to assess the antagonist properties of the compounds.
The data so generated may be analysed by means of a computerised curve-fitting routine. The concentration of compound that elicits a half-maximal inhibition of the calcium mobilisation induced by PGE2 (pIC50) may then be estimated.

Ki [nM] | SMILES
< 1000 | COc1ccc2[nH]c(-c3ccc(Cc4cc(Cl)ccc4OCc4ccccc4)o3)nc2c1 [Example 100, 2-[5-({5-Chloro-2-[(phenylmethyl)oxy]phenyl}methyl)-2-furanyl]-5-(methyloxy)-1H-benzimidazole]
< 1000 | CC(C)COc1ccc(Cl)cc1Cc1ccc(-c2cc[nH]n2)o1 [Example 168]
< 1000 | CC(C)COc1ccc(Cl)cc1Cc1ccc(-c2nc3ccc(CN(C)CC(C)(C)C)cc3[nH]2)o1 [Example 153, N-({2-[5-({5-Chloro-2-[(2-methylpropyl)oxy]-phenyl}methyl)-2-furanyl]-1H-benzimidazol-5-yl}methyl)-N,2,2-trimethyl-1-propanaminedihydrochloride]
< 1000 | O=C(Nc1c(F)cccc1F)c1ccc(Cc2cc(Cl)ccc2OCc2ccc(Cl)cc2Cl)o1 [Example 89, 5-[(5-Chloro-2-{[(2,4-dichlorophenyl)methyl]-oxy}phenyl)methyl]-N-(2,6-difluorophenyl)-2-furancarboxamide]
< 1000 | CCNCc1ccc2nc(-c3ccc(Cc4cc(Cl)ccc4OCC(C)C)o3)[nH]c2c1 [Example 154, N-({2-[5-({5-Chloro-2-[(2-methylpropyl)oxy]-phenyl}methyl)-2-furanyl]-1H-benzimidazol-5-yl}methyl)ethanaminedihydrochloride]
≤ 10 | CC(C)COc1ccc(Cl)cc1Cc1ccc(-c2ncc[nH]2)o1 [Example 167, 2-[5-({5-Chloro-2-[(2-methylpropyl)oxy]phenyl}methyl)-2-furanyl]-1H-imidazole]
> 1000 | CC(C)COc1ccc(Cl)cc1Cc1ccc(-c2nc3cccc(CO)c3[nH]2)o1 [Example 134, {2-[5-({5-chloro-2-[(2-methylpropyl)oxy]phenyl}methyl)-2-furanyl]-1H-benzimidazol-4-yl}methanol]
< 1000 | O=C(Nc1c(F)cccc1F)c1ccc(Cc2cc(Cl)ccc2OCc2cccnc2)o1 [Example 92, 5-({5-Chloro-2-[(3-pyridinylmethyl)oxy]phenyl}methyl)-N-(2,6-difluorophenyl)-2-furancarboxamide]
> 1000 | CC(C)COc1ccc(Cl)cc1Cc1ccc(-c2nc3cc(Br)cnc3[nH]2)o1 [Example 135, 6-Bromo-2-[5-({5-chloro-2-[(2-methylpropyl)oxy]phenyl}methyl)-2-furanyl]-1H-imidazo[4,5-b]pyridine hydrochloride]
< 1000 | C=Cc1cnc2[nH]c(-c3ccc(Cc4cc(Cl)ccc4OCC(C)C)o3)nc2c1 [Example 137, 2-[5-({5-Chloro-2-[(2-methylpropyl)oxy]phenyl}methyl)-2-furanyl]-6-ethenyl-1H-imidazo[4,5-b]pyridine hydrochloride]
< 1000 | CC(C)COc1ccc(Cl)cc1Cc1ccc(-c2nc3cc(C(F)(F)F)ccc3[nH]2)o1 [Example 126, 2-[5-({5-Chloro-2-[(2-methylpropyl)oxy]phenyl}-methyl)-2-furanyl]-5-(trifluoromethyl)-1H-benzimidazole]
< 1000 | CC(C)COc1ccc(Cl)cc1Cc1ccc(-c2nc3cc(CCN4CCCC4)ccc3[nH]2)o1 [Example 161, 2-[5-({5-Chloro-2-[(2-methylpropyl)oxy]-phenyl}methyl)-2-furanyl]-5-[2-(1-pyrrolidinyl)ethyl]-1H-benzimidazoledihydrochloride]
< 1000 | Clc1ccc(OCc2ccccc2)c(Cc2ccc(-c3nc4ccc(CN5CCOCC5)cc4[nH]3)o2)c1 [Example 139, 2-[5-({5-Chloro-2-[(phenylmethyl)oxy]-phenyl}methyl)-2-furanyl]-5-(4-morpholinylmethyl)-1H-benzimidazoledihydrochloride]
< 1000 | Fc1cc2nc(-c3ccc(Cc4cc(Cl)ccc4OCc4ccccc4)o3)[nH]c2cc1F [Example 129, 2-[5-({5-Chloro-2-[(phenylmethyl)oxy]phenyl}methyl)-2-furanyl]-5,6-difluoro-1H-benzimidazole]
< 1000 | O=C(Nc1c(F)cccc1F)c1ccc(Cc2cc(Cl)ccc2OC2CCCC2)o1 [Example 95, 5-{[5-Chloro-2-(cyclopentyloxy)phenyl]-methyl}-N-(2,6-difluorophenyl)-2-furancarboxamide]

The remaining lines, values behind:

SMILES | Ki [nM]
CC(C)COc1ccc(Cl)cc1Cc1ccc(C(=O)n2cnc3ccccc32)o1 [Example 67, 1-{[5-({5-Chloro-2-[(2-methylpropyl)oxy]-phenyl}methyl)-2-furanyl]carbonyl}-1H-benzimidazole] | < 1000
Cc1cccc(Cl)c1NC(=O)c1ccc(Cc2cc(Cl)ccc2OCc2ccccc2)o1 [Example 74, N-(2-Chloro-6-methylphenyl)-5-({5-chloro-2-[(phenylmethyl)oxy]-phenyl}methyl)-2-furancarboxamide] | < 1000
CC(C)COc1ccc(Cl)cc1Cc1ccc(C(=O)NCc2ccc(C(N)=O)cc2)o1 [Example 46, N-{[4-(Aminocarbonyl)-phenyl]methyl}-5-({5-chloro-2-[(2-methylpropyl)oxy]phenyl}methyl)-2-furancarboxamide] | < 1000
CC(C)CNC(=O)c1ccc(Cc2cc(Cl)ccc2OCc2ccccc2)o1 [Example 50, 5-({5-Chloro-2-[(phenylmethyl)oxy]phenyl}methyl)-N-(2-methylpropyl)-2-furancarboxamide] | < 1000
CC(C)COc1ccc(Cl)cc1Cc1ccc(C(=O)Nc2ccccc2)o1 [Example 34, 5-({5-Chloro-2-[(2-methylpropyl)oxy]phenyl}methyl)-N-phenyl-2-furancarboxamide] | < 1000
CC(C)Oc1ccc(Cl)cc1Cc1ccc(C(=O)O)o1 [Example 2, Sodium 5-({5-chloro-2-[(1-methylethyl)oxy]phenyl}methyl)-2-furancarboxylate] | < 1000
COc1ccc(CNC(=O)c2ccc(Cc3cc(Cl)ccc3OCC(C)C)o2)cc1 [Example 40, 5-({5-Chloro-2-[(2-methylpropyl)oxy]phenyl}methyl)-N-{[4-(methyloxy)phenyl]methyl}-2-furancarboxamide] | < 1000
CC(C)COc1ccc(Cl)cc1Cc1ccc(C(=O)NCc2ccc(-c3cccnc3)cc2)o1 [Example 45, 5-({5-Chloro-2-[(2-methylpropyl)oxy]phenyl}methyl)-N-{[4-(3-pyridinyl)phenyl]methyl}-2-furancarboxamide] | < 1000
CC(C)CCOc1ccc(Cl)cc1Cc1ccc(C(=O)O)o1 [Example 11, Sodium 5-({5-chloro-2-[(3-methylbutyl)oxy]phenyl}methyl)-2-furancarboxylate] | < 1000
O=C(c1ccc(Cc2cc(Cl)ccc2OCc2ccccc2)o1)n1cnc2ccccc21 [Example 77, 1-{[5-({5-Chloro-2-[(phenylmethyl)oxy]-phenyl}methyl)-2-furanyl]carbonyl}-1H-benzimidazole] | < 1000
Cc1cc(NC(=O)OC(C)(C)C)oc1Cc1cc(Cl)ccc1OCC(C)C [Example 30, 1,1-Dimethylethyl[5({5-chloro-2-[(2-methylpropyl)oxy]phenyl}methyl)-4-methyl-2-furanyl]carbamate] | < 1000
O=C(Nc1c(F)cccc1F)c1ccc(Cc2cc(Cl)ccc2OCc2ccccc2F)o1 [Example 81, 5-[(5-Chloro-2-{[(2-fluorophenyl)methyl]oxy}phenyl)methyl]-N-(2,6-difluorophenyl)-2-furancarboxamide] | < 1000
O=C(O)c1ccc(Cc2cc(Cl)ccc2OCc2ccncc2Cl)o1 [Example 17, Sodium 5-[(5-chloro-2-{[(3-chloro-4-pyridinyl)methyl]oxy}phenyl)methyl]-2-furancarboxylate] | ≤ 10
